How the values were obtained:
rat prostate = details: in vitro and in vivo; Brooks et al. 1981; cited from earlier work
ventral prostate = details: rat; Brooks et al. 1981; cited from earlier work
5α-reductase [1] = details: Liang et al. 1981; cited from earlier work
5α-reductase [2] = molecular target: T1, 5α-reductase (Homo sapiens, UniProt P18405); experiment: 5α-reductase inhibition in DU 145 cells (conversion of tritiated 4-androstenedione); format: cell-based
T1 construct: host or cells: DU 145 (human prostate carcinoma)
T1 sequence (P18405 1-259): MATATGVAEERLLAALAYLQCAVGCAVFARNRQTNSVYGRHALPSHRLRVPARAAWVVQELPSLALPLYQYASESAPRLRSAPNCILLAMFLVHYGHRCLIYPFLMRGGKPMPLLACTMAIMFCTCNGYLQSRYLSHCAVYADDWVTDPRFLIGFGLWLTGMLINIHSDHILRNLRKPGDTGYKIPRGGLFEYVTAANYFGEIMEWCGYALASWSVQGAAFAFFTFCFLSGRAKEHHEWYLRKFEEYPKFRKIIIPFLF
Protocol: Except where otherwise indicated, 5α-reductase inhibition is measured by the following method. Plates having 24 dishes per unit are used. Into each dish were placed 100,000 cells from the human carcinoma metastatic prostatic cell line DU 145 (ATCC #HTB 81) in MEM medium containing 2% dextran charcoal-treated calf serum, 1% penicillin, 1% streptomycin and 1% non essential amino acids. After 24 h, the medium was removed and replaced by 2.5 ml of MEM medium containing 2% dextran charcoal-treated calf serum, 10 nM of tritiated […] and 1% of ethanol. Each dish had different concentrations of the 5α-reductase inhibitor being tested. The cells were incubated for 24 h at 37° C. under an atmosphere of 5% CO2 saturated with water. The extracellular medium was then removed, centrifuged at 1000 RPM for 10 min., and decanted in test tubes. To these test tubes was added 100 μl of ethanol containing 25 μg of androstanedione, 25 μg of 4-androstenedione, 25 μg of dihydrotestosterone and 25 μg of testosterone. The steroids were then extracted from the mixture by two extractions with 2 ml of diethyl ether. Phase separation was achieved by freezing of the aqueous phase. The organic phase was then evaporated, thus leaving asteroid residue which was dissolved in a few drops of methylene chloride and spotted on TLC plates (Whatman WH 4420222). After developing twice with a mixture of benzene-acetone (9:1), the spots were visualized by U.V. and gaseous iodine, cut, put into separate vials for each steroid and extracted for 15 min with 1 ml of ethanol. After addition of 10 ml of scintillation cocktail (NEN 989), the vials were shaked and counted.
The 5α-reductase activity is the sum of the transformation of 4-androstenedione to androstanedione and of the transformation of testosterone to dihydrotestosterone.

prostate = details: men; Imperato-McGinley et al. 1989; cited from earlier work
intraprostatic DHT = details: men; Imperato-McGinley et al. 1989; cited from earlier work
type II 5α-reductase = details: Andersson et al. 1991; cited from earlier work
type I 5α-reductase = details: Andersson et al. 1991; cited from earlier work

Row | Structure (SMILES) | Ki (5α-reductase [2]) | also measured
1 | CCN(CC)C(=O)[C@H]1CC[C@H]2[C@@H]3CC[C@H]4N(C)C(=O)CC[C@]4(C)[C@H]3CC[C@]12C [4-MA, N,N-diethyl-4-methyl-3-oxo-4-aza-5α-androstane-17β-carboxamide] | – | inhibiting the formation of DHT from testosterone in rat prostate (rat prostate): useful in inhibiting the formation of DHT from testosterone in rat prostate in vitro and in vivo; testosterone-induced increase in ventral prostate weight (ventral prostate): reducing the testosterone-induced increase in ventral prostate weight; 5α-reductase inhibition type (5α-reductase [1]): reversible inhibitor of 5α-reductase
2 | CN(C=O)[C@H]1CC[C@H]2[C@@H]3CC[C@H]4N(C)C(=O)CC[C@]4(C)[C@H]3CC[C@]12C [EM 316, 17β-(N-methyl-N-formamido)-4-methyl-4-aza-5α-androstan-3-one] | 29 nM | –
3 | CN1C(=O)CC[C@]2(C)[C@H]3CC[C@]4(C)[C@@H](N(C=O)C5CC5)CC[C@H]4[C@@H]3CC[C@@H]12 [EM 336, 17β-(N-Cyclopropyl-N-formamido)-4-methyl-4-aza-5α-androstan-3-one] | 11.2 nM | –
4 | CN1C(=O)CC[C@]2(C)[C@H]3CC[C@]4(C)[C@@H](N(C=O)C5CCCCC5)CC[C@H]4[C@@H]3CC[C@@H]12 [EM 337, 17β-(N-Cyclohexyl-N-formamido)-4-methyl-4-aza-5α-androstan-3-one] | 11.9 nM | –
5 | CCCCN(C=O)[C@H]1CC[C@H]2[C@@H]3CC[C@H]4N(C)C(=O)CC[C@]4(C)[C@H]3CC[C@]12C [EM 347, 17β-(N-n-butyl-N-formamido)-4-methyl-4-aza-5α-androstan-3-one] | 2.6 nM | –
6 | CNC(=O)N(C1CC1)[C@H]1CC[C@H]2[C@@H]3CC[C@H]4N(C)C(=O)CC[C@]4(C)[C@H]3CC[C@]12C [EM 373, 17β-N-(1N-cyclopropyl-2N-methylurea)-4-methyl-4-aza-5α-androstan-3-one] | 0.5 nM | –
7 | CN1C(=O)CC[C@]2(C)[C@H]3CC[C@]4(C)[C@@H](N(C(=O)Nc5ccccc5)C5CC5)CC[C@H]4[C@@H]3CC[C@@H]12 [EM 374, 17β-N-(1N-cyclopropyl-2N-phenylurea)-4-methyl-4-aza-5α-androstan-3-one] | 2.3 nM | –
8 | CCCNC(=O)N(C1CC1)[C@H]1CC[C@H]2[C@@H]3CC[C@H]4N(C)C(=O)CC[C@]4(C)[C@H]3CC[C@]12C [EM 390] | 7.1 nM | –
9 | CCNC(=O)N(C1CC1)[C@H]1CC[C@H]2[C@@H]3CC[C@H]4N(C)C(=O)CC[C@]4(C)[C@H]3CC[C@]12C [EM 392, 17βN-(1N-cyclopropyl-2N-ethylurea)-4-methyl-4-aza-5α-androstan-3-one] | 13.5 nM | –
10 | CCCCNC(=O)N(C1CC1)[C@H]1CC[C@H]2[C@@H]3CC[C@H]4N(C)C(=O)CC[C@]4(C)[C@H]3CC[C@]12C [EM 394] | 3.3 nM | –
11 | CC(C)NC(=O)N(C1CC1)[C@H]1CC[C@H]2[C@@H]3CC[C@H]4N(C)C(=O)CC[C@]4(C)[C@H]3CC[C@]12C [EM 396] | 14 nM | –
12 | CN1C(=O)CC[C@]2(C)[C@H]3CC[C@]4(C)[C@@H](N(C(=O)NC5CCCCC5)C5CC5)CC[C@H]4[C@@H]3CC[C@@H]12 [EM 397] | 3.2 nM | –
13 | CCCCCN(C=O)[C@H]1CC[C@H]2[C@@H]3CC[C@H]4N(C)C(=O)CC[C@]4(C)[C@H]3CC[C@]12C [EM 401, 17β(N-n-Amyl-N-formamido)-4-methyl-4-aza-5α-androstan-3-one] | 1.8 nM | –
14 | CCCCCCN(C=O)[C@H]1CC[C@H]2[C@@H]3CC[C@H]4N(C)C(=O)CC[C@]4(C)[C@H]3CC[C@]12C [EM 402, 17β-(N-n-Hexyl-N-formamido)-4-methyl-4-aza-5α-androstan-3-one] | 7.2 nM | –
15 | CC(C)CCN(C=O)[C@H]1CC[C@H]2[C@@H]3CC[C@H]4N(C)C(=O)CC[C@]4(C)[C@H]3CC[C@]12C [EM 405, 17β-(N-iso-Amyl-N-formamido)-4-methyl-4-aza-5α-androstan-3-one] | 2.2 nM | –
16 | CCC(CC)N(C=O)[C@H]1CC[C@H]2[C@@H]3CC[C@H]4N(C)C(=O)CC[C@]4(C)[C@H]3CC[C@]12C [EM 407, 17β-(N-1-Ethylpropyl-N-formamido)-4-methyl-4-aza-5α-androstan-3-one] | 10.6 nM | –
17 | CN(C(=O)Nc1ccccc1)[C@H]1CC[C@H]2[C@@H]3CC[C@H]4N(C)C(=O)CC[C@]4(C)[C@H]3CC[C@]12C [EM 408, 17βN-(1N-methyl-2N-phenylurea)-4-methyl-4-aza-5α-androstan-3-one] | 8.2 nM | –
18 | CC(C)CN(C=O)[C@H]1CC[C@H]2[C@@H]3CC[C@H]4N(C)C(=O)CC[C@]4(C)[C@H]3CC[C@]12C [EM 422, 17β-(N-iso-Butyl-N-formamido)-4-methyl-4-aza-5-androstan-3-one] | 7.3 nM | –
19 | CCCN(C=O)[C@H]1CC[C@H]2[C@@H]3CC[C@H]4N(C)C(=O)CC[C@]4(C)[C@H]3CC[C@]12C [EM 423, 17β-(N-n-propyl-N-formamido)-4-methyl-4-aza-5α-androstan-3-one] | 5.1 nM | –
20 | CCCCN(C(C)=O)[C@H]1CC[C@H]2[C@@H]3CC[C@H]4N(C)C(=O)CC[C@]4(C)[C@H]3CC[C@]12C [EM 424, 17β-(N-n-butyl-N-acetamido)-4-methyl-4-aza-5α-androstan-3-one] | 11.8 nM | –
21 | CN1C(=O)CC[C@]2(C)[C@H]3CC[C@]4(C)[C@@H](N(C=O)Cc5ccccc5)CC[C@H]4[C@@H]3CC[C@@H]12 [EM 436, 17β-(N-Benzyl-N-formamido)-4-methyl-4-aza-5α-androstan-3-one] | 5.6 nM | –
22 | CC(C)(C)NC(=O)[C@H]1CC[C@H]2[C@@H]3CC[C@H]4NC(=O)C=C[C@]4(C)[C@H]3CC[C@]12C [MK-906] | – | reduction in prostatic size (prostate): 25-30%; intraprostatic concentration of DHT (intraprostatic DHT): reduction in the intraprostatic concentration of DHT; inhibition of the type II enzyme (type II 5α-reductase): potent inhibitor of the type II enzyme; inhibition of the type I enzyme (type I 5α-reductase): weak inhibitor of the type I enzyme

Source: patent publication US5494914A, “Inhibitors for testosterone 5α-reductase activity” (Endorecherche, priority 1994, dated 1996)
